The record followed here is patent US5637262A, “Photochromic substituted naphthopyran compounds” (Transitions Optical, Inc., priority 1995, dated 1997).

What all share (assay type): physicochemical
A short description of data set [1]: Activating wavelength by UV spectrophotometer (diethylene glycol dimethyl ether). The conditions noted are these: for Activating Wavelength in Diethylene Glycol Dimethyl Ether: Table 1, approximately 0.5 milligram per milliliter in diethylene glycol dimethyl ether; for ACTIVATING WAVELENGTH: Table 3. The procedure:
The products of Examples 1, 5, 8, 9, and Comparative Examples 1 and 2 were dissolved in diethylene glycol dimethyl ether. The concentrations of the resulting solutions were approximately 0.5 milligram per milliliter. Each solution was tested in a UV spectrophotometer to determine its activating wavelength. The activating wavelength reported in Table 1 is the wavelength at which activation of the photochromic compound occurs in diethylene glycol dimethyl ether. That value corresponds to the absorption peak in the ultraviolet region that is closest to the visible region or the threshold range, i.e., 390 to 410 nanometers, if there is only one absorption peak in this region. If there is more than one absorption peak, the activating wavelength corresponds most closely to the absorption peak that immediately proceeds the peak of longer wavelength in the ultraviolet region or the threshold range.

Data set [2] in a line: Solar response / loss in response on optical bench with 320 nm and 360 nm filters (Part C). The note with it: for Δ OD @ 320 nm / Δ OD @ 360 nm: 15 minute exposure; for Δ OD @ 320 nm: 320 nanometer filter; for Δ OD @ 360 nm: 360 nanometer filter; for % LOSS IN RESPONSE: (OD 320 nm - OD 360 nm)/OD 320 nm x 100; for BLEACH RATE T 1/2: polymeric matrix prepared from a diethylene glycol bis(allyl carbonate) composition. The procedure:
(§1) The test samples were evaluated for photochromic response rates on an optical bench. The samples were illuminated by a 150 watt Xenon lamp fitted with a copper sulfate bath, a 320 nanometer filter, and a neutral density filter at an intensity of about one sun. A second beam of light provided by a filtered tungsten lamp arranged to pass through the sample area exposed by the UV source was used to monitor changes in transmission of the sample over different wavelength ranges in the visible region of the spectrum. The intensity of the monitoring beam after passing through the sample was measured by means of an IL-1500 radiometer equipped with a silicon detector head and matching filters.
The Δ OD/Min, which represents the sensitivity of the photochromic compound's response to UV light, was measured using photopic filters on the silicon detector. The response of the filtered detector approximated the luminosity curve. The Δ OD was measured over the first five (5) seconds of UV exposure, then expressed on a per minute basis. The saturation optical density (OD) was taken under identical conditions as the Δ OD/Min, except UV exposure was continued for 20 minutes for the examples in Table 2. The Bleach Rate T 1/2 is the time interval in seconds for the absorbance of the activated form of the naphthopyran in the test polymers to reach one half the highest absorbance at room temperature (72° F., 22.2° C.) after removal of the source of activating light.
The solar response for naphthopyrans of Example 7 and Comparative Examples 3 and 4 was measured using the optical bench described in Part B. The naphthopyrans were imbibed by thermal transfer into test squares of a polymeric matrix prepared from a diethylene glycol bis(allyl carbonate) composition and two optical density measurements were made after 15 minute exposures to a UV source first fitted with a 320 nanometer filter and then fitted with a 360 nanometer filter. The loss in response was calculated by subtracting the optical density obtained with the 360 nanometer filter from the optical density obtained with the 320 nanometer filter and then dividing this figure by the optical density obtained with the 320 nanometer filter and multiplying by 100.
The loss in response measurement, expressed as a percent, simulates the difference between the photochromic response of the compounds exposed to full mid-day sun and to low light conditions, such as early day and late in the day when the lower wavelength components of the UV spectrum are attenuated.

The nature of data set [3]: Photochromic response on optical bench in homopolymer of diethylene glycol bis(allyl carbonate) test squares (Part B). The conditions noted are these: for BLEACH RATE T 1/2: Table 2, room temperature (72° F., 22.2° C.), homopolymer of diethylene glycol bis(allyl carbonate); for Δ OD @ SATURATION: UV exposure 20 minutes; for Δ OD @ SATURATION / Δ OD/Min SENSITIVITY: 320 nanometer filter, homopolymer test squares; for Δ OD/Min SENSITIVITY: first five (5) seconds of UV exposure, per minute basis. As to the method: Each naphthopyran was dissolved into toluene solvent to form a 4 weight percent solution of the compound. A piece of No. 4 Whatman filter paper was saturated with the naphthopyran solution and allowed to air dry. The dried filter paper was placed on one side of the polymer test square, which measured 1/8 inch (0.3 centimeter)×2 inch (5.1 centimeters)×2 inch (5.1 centimeters). A piece of untreated filter paper was placed on the other side of the polymer test square and the resulting sandwich placed between two plates of flat aluminum metal plates. […] The imbibed test squares were washed with acetone after removal from the oven.
as §1
The Δ OD/Min, which represents the sensitivity of the photochromic compound's response to UV light, was measured using photopic filters on the silicon detector. The response of the filtered detector approximated the luminosity curve. The Δ OD was measured over the first five (5) seconds of UV exposure, then expressed on a per minute basis. The saturation optical density (OD) was taken under identical conditions as the Δ OD/Min, except UV exposure was continued for 20 minutes for the examples in Table 2.

For the compound `COC(=O)c1cc2c3c(ccc2cc1OC(C)=O)OC(c1ccc(OC)cc1)(c1ccc(OC)cc1OC)C=C3` (stereo not drawn) [Example 8, 3-(2,4-dimethoxy-phenyl)-3-(4-methoxyphenyl)-8-acetoxy-9-carbomethoxy-3H-naphtho-[2,1-b]pyran], in data set [1], the Activating Wavelength in Diethylene Glycol Dimethyl Ether was 376 nm.

As for `COc1ccc2c3c(ccc2c1C)OC(c1ccccc1)(c1ccccc1)C=C3` [Example 9, 3,3-diphenyl-7-methyl-8-methoxy-3H-naphtho[2,1-b]pyran], the Activating Wavelength in Diethylene Glycol Dimethyl Ether in data set [1] was 369 nm.

Regarding `COc1ccc(C2(c3ccc(OC)cc3OC)C=Cc3c(ccc4ccccc34)O2)cc1` (stereo not drawn) [compound 4, 3-(2,4-dimethoxyphenyl)-3-(4-methoxyphenyl)-3H-naphtho[2,1-b]pyran], in data set [2], the “Δ OD @ 320 nm” value was determined as 0.260, the “Δ OD @ 360 nm” value is reported as 0.196 and the “% LOSS IN RESPONSE” value came to 25%. Moreover, the “BLEACH RATE T 1/2” value in data set [2] (Table 3) came out at 5.63 min. The ACTIVATING WAVELENGTH in data set [1] came out at 348 nm.

In the case of `C1=CC(c2ccccc2)(c2ccccc2)Oc2ccc3ccccc3c21` [compound 2, 3,3-diphenyl-3H-naphtho[2,1-b]pyran], in data set [1], the Activating Wavelength in Diethylene Glycol Dimethyl Ether was found to be 348 nm. Further, in data set [3], the “BLEACH RATE T 1/2” value stood at 0.75 min, the “Δ OD @ SATURATION” value came to 0.36 and the “Δ OD/Min SENSITIVITY” value was 0.87 Δ OD/Min.

Take `CCCOC(=O)c1cc2c3c(ccc2cc1OC)OC(c1ccccc1)(c1ccccc1)C=C3` [Example 5, 3,3-diphenyl-8-methoxy-9-carbopropoxy-3H-naphtho[2,1-b]pyran]: in data set [1], the Activating Wavelength in Diethylene Glycol Dimethyl Ether amounted to 382 nm. Also, in data set [3], the “BLEACH RATE T 1/2” value is 1.33 min, the “Δ OD @ SATURATION” value was found to be 0.55 and the “Δ OD/Min SENSITIVITY” value is listed as 1.4 Δ OD/Min. For the same compound, the “Sensitivity (in words)” value in data set [3] (compared to comparative examples 1 and 2) is “increased sensitivity as compared to the compounds of comparative examples 1 and 2”.

With `COC(=O)c1cc2c3c(ccc2cc1OC)OC(c1ccc(OC)cc1)(c1ccccc1F)C=C3` (stereo not drawn) [Example 7, 3-(2-fluorophenyl)-3-(4-methoxyphenyl)-8-methoxy-9-carbomethoxy-3H-naphtho[2,1-b]pyran], in data set [2], the “Δ OD @ 320 nm” value is listed as 0.187, the “Δ OD @ 360 nm” value turned out to be 0.184 and the “% LOSS IN RESPONSE” value is reported as 2%. For the same compound, in data set [2] (Table 3), the “Bleach Rate T 1/2, i.e., rate of fade (in words)” value is given as “more acceptable Bleach Rate T 1/2” and the “BLEACH RATE T 1/2” value turned out to be 3.27 min. In addition, the “Reduction in optical density, 360 nm vs 320 nm cutoff filter (in words)” value in data set [2] (compared to comparative examples 3 and 4) was “less reduction in optical density”. The same compound had an ACTIVATING WAVELENGTH in data set [1] of 384 nm.

Consider `CCCOC(=O)c1cc2c3c(ccc2cc1O)OC(c1ccccc1)(c1ccccc1)C=C3` [Example 1, 3,3-diphenyl-8-hydroxy-9-carbopropoxy-3H-naphtho[2,1-b]pyran], for which the Activating Wavelength in Diethylene Glycol Dimethyl Ether in data set [1] turned out to be 408 nm.

In data set [1], `COc1ccc2c3c(ccc2c1)OC(c1ccccc1)(c1ccccc1)C=C3` [compound 1, 3,3-diphenyl-8-methoxy-3H-naphtho [2,1-b]pyran] gave an Activating Wavelength in Diethylene Glycol Dimethyl Ether of 359 nm. Moreover, in data set [3], the “BLEACH RATE T 1/2” value turned out to be 1.45 min, the “Δ OD @ SATURATION” value turned out to be 0.73 and the “Δ OD/Min SENSITIVITY” value was 1.25 Δ OD/Min.

With `COc1ccc(C2(c3ccccc3F)C=Cc3c(ccc4cc(OC)ccc34)O2)cc1` (stereo not drawn) [Comparative Example 3, 3-(2-fluorophenyl)-3-(4-methoxyphenyl)-8-methoxy-3H-naphtho[2,1-b]pyran], in data set [2], the “Δ OD @ 320 nm” value is 0.266, the “Δ OD @ 360 nm” value is 0.249 and the “% LOSS IN RESPONSE” value is listed as 6%. For the same compound, in data set [2] (Table 3), the “BLEACH RATE T 1/2” value stood at 5.93 min. The compound further registered an ACTIVATING WAVELENGTH in data set [1] of 359 nm.
